Drawing on US9617310B2 (priority 2013, dated 2017), this text covers EC50 for 6 compounds.

Assay type in all cases: cell-based
The subject of experiment [1] is genotype 1a stable HCV replicon (H77) in Huh-7-derived cells. Briefly: Stable subgenomic HCV replicon, genotype 1a, Renilla luciferase. The following applies: Hepatitis C virus, stable replicon genotype 1a, 72 h, read-out: EC50 1A RLUC. The method, then: (§1) Antiviral potency (EC50) was determined in both stable subgenomic HCV replicon cell lines and transient-transfected HCV replicon cells. The term half maximal effective concentration (EC50) refers to the concentration of a drug which induces a response halfway between the baseline and maximum after the exposure time specified below.
(§2) Stable subgenomic HCV replicons for genotype 1a, 1b, 2a, 3a, and 4a were established in Huh-7-derived cells as described by Lohmann et al (Lohmann V, Korner F, Koch J, et al Replication of subgenomic hepatitis C virus RNAs in a hepatoma cell line. Science 1999; 285:119-3). Each stable cell line contains a bicistronic HCV replicon that encodes a humanized Renilla luciferase (hRLuc) reporter gene fused to a selectable neomycin-resistance gene, followed by an EMCV IRES and the NS3-NS5B coding region of HCV. […] Luciferase activity was measured as a marker for intracellular HCV replication levels.
(§3) The genotype 1a stable replicon was derived from the H77 HCV strain and contained adaptive mutations P1496L and S2204I. The genotype 1b stable replicon was derived from the Con1 HCV strain and contained adaptive mutations E1202G, T1280I, and K1846T. […] The genotype 3a stable replicon was derived from the S52 HCV strain and contained adaptive mutations P1121 L, A1198T and S2210I (equivalent to S2204I in genotype 1). The genotype 4a stable replicon was derived from the ED43 HCV strain and contained adaptive mutations Q1691R and S2204I. All replicon cell lines were propagated in Huh-7-derived cells and maintained in Dulbecco's modified Eagle's Medium (DMEM) supplemented with 10% fetal bovine serum (FBS) and 0.5 mg/ml G418.
(§4) To perform EC50 assays, cells from each HCV replicon were dispensed into 384-well plates. Compounds were dissolved in DMSO at a concentration of 10 mM and diluted in DMSO using an automated pipetting instrument. Three-fold serially diluted compounds were directly added to the cells using an automated instrument. DMSO was used as a negative (solvent; no inhibition) control, and a combination of three HCV inhibitors including a protease inhibitor; an NS5A inhibitor and a nucleoside inhibitor was used at concentrations >100×EC50 as a positive control (100% inhibition). Seventy-two hours later, cells were lysed and Renilla luciferase activity were quantified as recommended by the manufacturer (Promega-Madison, Wis.). Non-linear regression was performed to calculate […], values.

Experiment [2] concerns genotype 2a stable HCV replicon (JFH-1) in Huh-7-derived cells. The experiment can be described thus: Stable subgenomic HCV replicon, genotype 2a, Renilla luciferase. The following applies: Hepatitis C virus, stable replicon genotype 2a, 72 h, read-out: EC50 2A RLUC. The method, then:
as §1, §2, §3, §4

For experiment [3], the system named is genotype 3a stable HCV replicon (S52) in Huh-7-derived cells. Briefly: Stable subgenomic HCV replicon, genotype 3a, Renilla luciferase. The following applies: Hepatitis C virus, 72 h, read-out: EC50 3A RLUC. The method, then:
as §1, §2, §3, §4

The test system of experiment [4] is genotype 4a stable HCV replicon (ED43) in Huh-7-derived cells. The experiment can be described thus: Stable subgenomic HCV replicon, genotype 4a, Renilla luciferase. The following applies: Hepatitis C virus, 72 h, read-out: EC50 4A RLUC. The procedure:
as §1, §2, §3, §4

Experiment [5] relates to genotype 3a transient HCV replicon (S52) in Huh-7-derived cells. The experiment can be described thus: Transient-transfected HCV replicon, genotype 3a wild type. The settings on record: Hepatitis C virus; transient-transfected replicon genotype 3a wild type, 72 h; read-out: EC50 3A WT.
The subject of experiment [6] is genotype 1a (H77) wild-type transient HCV replicon in Huh-7-derived cells. Briefly: Transient-transfected HCV replicon, genotype 1a wild type. The settings on record: Hepatitis C virus; transient-transfected replicon genotype 1a wild type, 72 h; read-out: EC50 1A WT.
In experiment [7] the test system is NS3/4a protease inhibitor resistant variant R155K in genotype 1a transient HCV replicon. The experiment can be described thus: Transient-transfected HCV replicon, genotype 1a R155K. The settings on record: Hepatitis C virus, 72 h, read-out: EC50 1A R155K.
For experiment [8], the system named is genotype 1b wild-type transient HCV replicon in Huh-7-derived cells. The experiment can be described thus: Transient-transfected HCV replicon, genotype 1b wild type. The following applies: Hepatitis C virus; transient-transfected replicon genotype 1b wild type, 72 h; read-out: EC50 1B WT.
The test system of experiment [9] is NS3/4a protease inhibitor resistant variant D168A in genotype 1b transient HCV replicon. The experiment can be described thus: Transient-transfected HCV replicon, genotype 1b D168A. The settings on record: Hepatitis C virus, 72 h, read-out: EC50 1B D168A.

Each structure is given as a SMILES string.

Consider `COc1ccc2nc3c(nc2c1)O[C@@H]1C[C@@H](C(=O)N[C@]2(C(=O)NS(=O)(=O)C4(C)CC4)C[C@H]2C(F)F)N(C1)C(=O)[C@H](C(C)(C)C)NC(=O)O[C@@H]1[C@H]2CC[C@H](C2)[C@H]1CCCCC3` [Example 5, (1R,4S,4aR,8S,11S,13R,25aR)-8-tert-butyl-N-[(1R,2R)-2-(difluoromethyl)-1-{[(1-methylcyclopropyl)sulfonyl]carbamoyl}cyclopropyl]-17-methoxy-6,9-dioxo-2,3,4,4a,6,7,8,9,12,13,21,22,23,24,25,25a-hexadecahydro-1H,11H-1, 4:10,13-dimethanoquinoxalino[2,3-k][1,10,3,6]benzodioxadiazacyclononadecine-11-carboxamide], for which the EC50 turned out to be 5 nM in [1]; 14 nM in experiment [2]; 473 nM in [3]; 3.9 nM in experiment [4]; 64 nM in experiment [5]; 4.2 nM in experiment [6]. Besides, the EC50 in experiment [7] is 35 nM; in experiment [8], 2.1 nM; in experiment [9] it was 161 nM.

Consider `COc1ccc2nc3c(nc2c1)O[C@@H]1C[C@@H](C(=O)N[C@]2(C(=O)NS(=O)(=O)C4CC4)C[C@H]2C(F)F)N(C1)C(=O)[C@H](C(C)(C)C)NC(=O)O[C@H]1[C@H](CCCCC3)C[C@H]2C[C@H]21` [Example 7, (1aR,1bS,5S,8S,10R,22aR,23aR)-5-tert-butyl-N-[(1R,2R)-1-[(cyclopropylsulfonyl)carbamoyl]-2-(difluoromethyl)cyclopropyl]-14-methoxy-3,6-dioxo-1a,1b,3,4,5,6,9,10,18,19,20,21,22,22a,23,23a-hexadecahydro-1H,8H-7,10-methanocyclopropa[3′,40]cyclopenta[1′,2′:18,19][1,10,3,6]dioxadiazacyclononadecino[11,12-b]quinoxaline-8-carboxamide], for which the EC50 in experiment [1] was 95 nM; in experiment [2] it was 199 nM; in experiment [3], 3300 nM; in [4], 55 nM; in [5], 928 nM; in [6], 72 nM. The EC50 in experiment [7] was 180 nM; in [8], 53 nM; in experiment [9] it was 1070 nM.

With `COc1ccc2nc3c(nc2c1)O[C@@H]1C[C@@H](C(=O)N[C@]2(C(=O)NS(=O)(=O)C4(C)CC4)C[C@H]2C(F)F)N(C1)C(=O)[C@H](C(C)(C)C)NC(=O)O[C@H]1[C@H](CCCCC3)C[C@H]2C[C@H]21` [Example 8, (1aR,1bS,5S,8S,10R,22aR,23aR)-5-tert-butyl-N-[(1R,2R)-2-(difluoromethyl)-1-{[(1-methylcyclopropyl)sulfonyl]carbamoyl}cyclopropyl]-14-methoxy-3,6-dioxo-1a,1b,3,4,5,6,9,10,18,19,20,21,22,22a, 23,23a-hexadecahydro-1H,8H-7,10-methanocyclopropa[3′,4′]cyclopenta [1′,2′:18,19][1,10,3,6]dioxadiazacyclononadecino[11,12-b]quinoxaline-8-carboxamide], the EC50 in [1] was 76 nM; in experiment [2], 110 nM; in experiment [3] it was 2450 nM; in [4], 33 nM; in experiment [5] it was 817 nM; in experiment [6], 72 nM. In addition, the figures for the EC50 in experiment [7], in [8] and in experiment [9] were 148 nM, 33 nM and 712 nM, respectively.

On to `COc1ccc2nc3c(nc2c1)O[C@@H]1C[C@@H](C(=O)N[C@]2(C(=O)NS(=O)(=O)C4(C)CC4)C[C@H]2C(F)F)N(C1)C(=O)[C@H](C(C)(C)C)NC(=O)O[C@@H]1C[C@@H]2C[C@@H]2[C@H]1CCCCC3(F)F` [Example 10, (1aS,2aR,6S,9S,11R,23aR,23bS)-6-tert-butyl-N-[(1R,2R)-2-(difluoromethyl)-1-{[(1-methylcyclopropyl)sulfonyl]carbamoyl}cyclopropyl]-19,19-difluoro-15-methoxy-4,7-dioxo-1a,2,2a,4,5,6,7,10,11,19,20,21,22,23,23a,23b-hexadecahydro-1H,9H-8,11-methanocyclopropa [4′,5′]cyclopenta[1′,2′:18,19][1,10,3,6]dioxadiazacyclononadecino[11,12-b]quinoxaline-9-carboxamide], for which the EC50 was 1.6 nM in [1]; 1.6 nM in experiment [2]; 4.9 nM in [3]; 1.3 nM in experiment [4]; 2.3 nM in experiment [5]; 1.4 nM in experiment [6]. Also, the EC50 in [7] was found to be 1.3 nM; in [8] it was 0.75 nM; in [9] it was 1 nM.

For the compound `CC(C)(C)[C@@H]1NC(=O)O[C@@H]2C[C@@H]3C[C@@H]3[C@H]2CCCCCc2nc3ccc(F)cc3nc2O[C@@H]2C[C@@H](C(=O)N[C@]3(C(=O)NS(=O)(=O)C4(C)CC4)C[C@H]3C(F)F)N(C2)C1=O` [Example 11, (1aS,2aR,6S,9S,11R,23aR,23bS)-6-tert-butyl-N-[(1R,2R)-2-(difluoromethyl)-1-{[(1-methylcyclopropyl)sulfonyl]carbamoyl}cyclopropyl]-15-fluoro-4,7-dioxo-1a,2,2a,4,5,6,7,10,11,19,20,21,22,23,23a,23b-hexadecahydro-1H,9H-8,11-methanocyclopropa[4′,5′]cyclopenta[1′,2′:18,19][1,10,3,6]dioxadiazacyclononadecino[11,12-b]quinoxaline-9-carboxamide], the EC50 came to 1.4 nM in experiment [1]; 2 nM in [2]; 61 nM in experiment [3]; 1.2 nM in experiment [4]; 9.7 nM in experiment [5]; 1.4 nM in [6]. For the same compound, the half-maximal effective concentration (EC50) stood at 1.9 nM in experiment [7], 0.78 nM in experiment [8] and 8.6 nM in [9].

For `CC(C)(C)[C@@H]1NC(=O)O[C@@H]2C[C@@H]3C[C@@H]3[C@H]2CCCCCc2nc3ccc(F)cc3nc2O[C@@H]2C[C@@H](C(=O)N[C@]3(C(=O)NS(=O)(=O)C4CC4)C[C@H]3C(F)F)N(C2)C1=O` [Example 12, (1aS,2aR,6S,9S,11R,23aR,23bS)-6-tert-butyl-N-[(1R,2R)-1-[(cyclopropylsulfonyl)carbamoyl]-2-(difluoromethyl)cyclopropyl]-15-fluoro-4,7-dioxo-1a,2,2a,4,5,6,7,10,11,19,20,21,22,23,23a,23b-hexadecahydro-1H,9H-8,11-methanocyclopropa[4′,5′]cyclopenta[1′,2′:18,19][1,10,3,6]dioxadiazacyclononadecino[11,12-b]quinoxaline-9-carboxamide], the EC50 was 1.7 nM in experiment [1]; 2.6 nM in experiment [2]; 89 nM in experiment [3]; 1.4 nM in [4]; 22 nM in experiment [5]; 0.8 nM in [6]. Besides, the EC50 in [7] came to 1.9 nM; in [8] it was 0.64 nM; in experiment [9] it was 15.6 nM.
